Test results taken from patent US20260022143A1, “Cyclic Peptide Inhibitors of IL-23” (JANSSEN PHARMACEUTICA NV, priority 2022, published 2026).
Starred links: 1 amine or outer side, 2 acyl side, 3 side chain; linkers in the order of their positions; H or OH if unused. Positions of bridges follow the written chain, without caps; N, C: chain ends. Non-standard residues stand in square brackets, D forms with d. Residues, ends and D or L forms follow the SMILES beside them. Groups on a side chain read outwards from the residue. *: point of attachment. Me3N+(CH2)2O(CH2)2O(CH2)2CO = C[N+](C)(C)CCOCCOCCC(=O)*; Trp(7-Me) = Cc1cccc2c(C[C@H](N)C(=O)O)c[nH]c12; d(hLys(Me3)) = C[N+](C)(C)CCCCC[C@@H](N)C(=O)O; γGlu = O=C(O)[C@H](CCC(=O)[*:2])N[*:1]; 2Nal = N[C@@H](Cc1ccc2ccccc2c1)C(=O)O; PEG6 = NCCOCCOCCOCCOCCOCCOCCC(=O)O; 3Pal = N[C@@H](Cc1cccnc1)C(=O)O; Myristoyl = CCCCCCCCCCCCCC(=O)*; Cit = NC(=O)NCCC[C@H](N)C(=O)O; Lys(Me) = CNCCCC[C@H](N)C(=O)O; NMeK = CN[C@@H](CCCCN)C(=O)O; Pen = CC(C)(S)[C@H](N)C(=O)O; Lauroyl = CCCCCCCCCCCC(=O)*; Thp = NC1(C(=O)O)CCOCC1; X3 = C[N+](C)(C)CCCCC*; AEEA = NCCOCCOCC(=O)O; Sar = CNCC(=O)O

Experiments:
IL-23R = target: T1, IL-23R (Homo sapiens, UniProt Q5VWK5); assay: IL23R Reporter Assay; format: cell-based; conditions: HEK293 cells containing IL-23R, IL-12RP1 and STAT-inducible firefly luciferase reporter; 10 ng/mL IL-23 (EC90); 5 h at 37° C.; read-out: IL23R Reporter Assay
T1 construct: host or cells: HEK293
T1 sequence (Q5VWK5 24-629): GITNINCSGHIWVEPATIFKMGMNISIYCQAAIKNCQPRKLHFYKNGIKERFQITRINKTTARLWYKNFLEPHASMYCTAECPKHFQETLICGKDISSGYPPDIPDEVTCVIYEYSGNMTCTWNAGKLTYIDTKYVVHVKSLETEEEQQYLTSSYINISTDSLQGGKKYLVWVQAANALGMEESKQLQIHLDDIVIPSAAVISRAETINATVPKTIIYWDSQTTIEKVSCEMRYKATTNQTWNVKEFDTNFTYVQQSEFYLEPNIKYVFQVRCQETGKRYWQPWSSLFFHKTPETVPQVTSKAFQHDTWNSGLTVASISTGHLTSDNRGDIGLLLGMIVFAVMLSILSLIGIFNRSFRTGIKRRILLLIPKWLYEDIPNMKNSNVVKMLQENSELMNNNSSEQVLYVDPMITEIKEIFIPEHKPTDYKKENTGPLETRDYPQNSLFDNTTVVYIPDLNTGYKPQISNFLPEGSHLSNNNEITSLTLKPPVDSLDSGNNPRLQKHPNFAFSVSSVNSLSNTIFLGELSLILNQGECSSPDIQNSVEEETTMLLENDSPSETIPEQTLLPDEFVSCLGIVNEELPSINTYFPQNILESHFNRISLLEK

[1] = Exposed Polar Surface Area (EPSA); format: physicochemical; conditions: SFC on Chirex 3014 column; sample 1 mM DMSO stock; read-out: EPSA
Procedure, shortened: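 Chirex 3014 column, 35 °C, 4 mL/min; CO2/MeOH + 20 mM NH4 formate, 5→60% modifier at 20%/min. UV/MS detection. EPSA (Å^2) from retention time vs 8-standard calibration line; duplicates; 1 mM DMSO stock injected undiluted.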

Row | SMILES | IC50 (IL-23R) [nM] | EPSA [1] [A^2]
1 | CC(=O)N[C@H](CCCCC[N+](C)(C)C)C(=O)N[C@@H]1C(=O)N[C@@H](CC(=O)N(C)C)C(=O)N[C@@H]([C@@H](C)O)C(=O)N[C@@H](Cc2c[nH]c3c(C)cccc23)C(=O)N[C@@H](CCCCN(C)C(C)=O)C(=O)N[C@H](C(=O)N[C@@H](Cc2ccc(OCCCCC[N+](C)(C)C)cc2)C(=O)N[C@@H](Cc2ccc3ccccc3c2)C(=O)NC2(C(=O)N[C@@H](CCCCN(C)C(C)=O)C(=O)N[C@@H](CC(N)=O)C(=O)N[C@@H](Cc3cccnc3)C(=O)N(C)CC(=O)N(C)C)CCOCC2)C(C)(C)SSC1(C)C [compound 344, MeCO-hk(Me)3-Pen(3)-N(N(Me)2)-T-7MeW-K(NMeAc)-Pen(3)-TMAPF-2Nal-THP-K(NMeAc)-N-3Pya-Sar-CON(Me)2] (Ac-[d(hLys(Me3))][Pen]D(NMe2)T[Trp(7-Me)][Lys(Me)](Ac)[Pen]Y(X3)[2Nal][Thp][Lys(Me)](Ac)N[3Pal][Sar]-NMe2; disulfide 2-7) | 6.6 | 158
2 | CC(=O)N(C)CCCC[C@H](NC(=O)C1(NC(=O)[C@H](Cc2ccc3ccccc3c2)NC(=O)[C@H](Cc2ccc(OCCCCC[N+](C)(C)C)cc2)NC(=O)[C@H]2NC(=O)[C@H](CCCNC(N)=O)NC(=O)[C@H](Cc3c[nH]c4c(C)cccc34)NC(=O)[C@H]([C@@H](C)O)NC(=O)[C@H](CC(=O)N(C)C)NC(=O)[C@@H](NC(=O)CCOCCOCC[N+](C)(C)C)C(C)(C)SSC2(C)C)CCOCC1)C(=O)N[C@@H](CC(N)=O)C(=O)N[C@@H](Cc1cccnc1)C(=O)N(C)CC(=O)N(C)C [compound 346, cPEG3aCO-Pen(3)-N(N(Me)2)-T-7MeW-Cit-Pen(3)-TMAPF-2Nal-THP-K(NMeAc)-N-3Pya-Sar-CON(Me)2] ({Me3N+(CH2)2O(CH2)2O(CH2)2CO}-[Pen]D(NMe2)T[Trp(7-Me)][Cit][Pen]Y(X3)[2Nal][Thp][Lys(Me)](Ac)N[3Pal][Sar]-NMe2; disulfide 1-6) | 1.8 | 158
3 | CCCCCCCCCCCC(=O)N[C@@H](CCC(=O)NCCOCCOCC(=O)NCCOCCOCC(=O)NCCCC[C@H](NC(=O)C1(NC(=O)[C@H](Cc2ccc3ccccc3c2)NC(=O)[C@H](Cc2ccc(OCCCCC[N+](C)(C)C)cc2)NC(=O)[C@H]2NC(=O)[C@H](CCCCNC(C)=O)NC(=O)[C@H](Cc3c[nH]c4c(C)cccc34)NC(=O)[C@H]([C@@H](C)O)NC(=O)[C@H](CC(N)=O)NC(=O)[C@@H](NC(=O)CCOCCOCC[N+](C)(C)C)C(C)(C)SSC2(C)C)CCOCC1)C(=O)N[C@@H](CC(N)=O)C(=O)N[C@@H](Cc1cccnc1)C(=O)N(C)[C@@H](CCCCNC(=O)COCCOCCNC(=O)COCCOCCNC(=O)CC[C@H](NC(=O)CCCCCCCCCCC)C(=O)O)C(N)=O)C(=O)O [compound 349, cPEG3aCO-Pen(3)-N-T-7MeW-K(Ac)-Pen(3)-TMAPF-2Nal-THP-K(PEG2PEG2gEC12)-N-3Pya-NMeK(PEG2PEG2gEC12)-CONH2] ({Me3N+(CH2)2O(CH2)2O(CH2)2CO}-[Pen]NT[Trp(7-Me)]K(Ac)[Pen]Y(X3)[2Nal][Thp]K([AEEA-AEEA-γGlu-Lauroyl])N[3Pal][NMeK]([AEEA-AEEA-γGlu-Lauroyl])-NH2; disulfide 1-6) | 220 | 179
4 | CCCCCCCCCCCC(=O)N[C@@H](CCC(=O)NCCOCCOCC(=O)NCCOCCOCC(=O)NCCCC[C@@H]1NC(=O)[C@H](Cc2c[nH]c3c(C)cccc23)NC(=O)[C@H]([C@@H](C)O)NC(=O)[C@H](CC(=O)N(C)C)NC(=O)[C@@H](NC(=O)CCOCCOCC[N+](C)(C)C)C(C)(C)SSC(C)(C)[C@@H](C(=O)N[C@@H](Cc2ccc(OCCCCC[N+](C)(C)C)cc2)C(=O)N[C@@H](Cc2ccc3ccccc3c2)C(=O)NC2(C(=O)N[C@@H](CCCCN(C)C(C)=O)C(=O)N[C@@H](CC(N)=O)C(=O)N[C@@H](Cc3cccnc3)C(=O)N(C)[C@@H](CCCCNC(=O)COCCOCCNC(=O)COCCOCCNC(=O)CC[C@H](NC(=O)CCCCCCCCCCC)C(=O)O)C(N)=O)CCOCC2)NC1=O)C(=O)O [compound 352, cPEG3aCO-Pen(3)-N(N(Me)2)-T-7MeW-K(PEG2PEG2gEC12)-Pen(3)-TMAPF-2Nal-THP-K(NMeac)-N-3Pya-NMeK(PEG2PEG2gEC12)-CONH2] ({Me3N+(CH2)2O(CH2)2O(CH2)2CO}-[Pen]D(NMe2)T[Trp(7-Me)]K([AEEA-AEEA-γGlu-Lauroyl])[Pen]Y(X3)[2Nal][Thp][Lys(Me)](Ac)N[3Pal][NMeK]([AEEA-AEEA-γGlu-Lauroyl])-NH2; disulfide 1-6) | 190 | 179
5 | CCCCCCCCCCCC(=O)N[C@@H](CCC(=O)NCCOCCOCC(=O)NCCOCCOCC(=O)NCCCC[C@@H]1NC(=O)[C@@H](NC(=O)CCOCCOCC[N+](C)(C)C)C(C)(C)SSC(C)(C)[C@@H](C(=O)N[C@@H](Cc2ccc(OCCCCC[N+](C)(C)C)cc2)C(=O)N[C@@H](Cc2ccc3ccccc3c2)C(=O)NC2(C(=O)N[C@@H](CCCCN(C)C(C)=O)C(=O)N[C@@H](CC(N)=O)C(=O)N[C@@H](Cc3cccnc3)C(=O)N(C)[C@@H](CCCCNC(=O)COCCOCCNC(=O)COCCOCCNC(=O)CC[C@H](NC(=O)CCCCCCCCCCC)C(=O)O)C(N)=O)CCOCC2)NC(=O)[C@H](CCCCNC(C)=O)NC(=O)[C@H](Cc2c[nH]c3c(C)cccc23)NC(=O)[C@H]([C@@H](C)O)NC1=O)C(=O)O [compound 356, cPEG3aCO-Pen(3)-K(PEG2PEG2gEC12)-T-7MeW-K(Ac)-Pen(3)-TMAPF-2Nal-THP-K(NMeac)-N-3Pya-NMeK(PEG2PEG2gEC12)-CONH2] ({Me3N+(CH2)2O(CH2)2O(CH2)2CO}-[Pen]K([AEEA-AEEA-γGlu-Lauroyl])T[Trp(7-Me)]K(Ac)[Pen]Y(X3)[2Nal][Thp][Lys(Me)](Ac)N[3Pal][NMeK]([AEEA-AEEA-γGlu-Lauroyl])-NH2; disulfide 1-6) | 280 | 174
6 | CCCCCCCCCCCC(=O)N[C@@H](CCC(=O)NCCOCCOCCOCCOCCOCCOCCC(=O)NCCOCCOCC(=O)NCCCC[C@@H](C(N)=O)N(C)C(=O)[C@H](Cc1cccnc1)NC(=O)[C@H](CC(N)=O)NC(=O)[C@H](CCCCN(C)C(C)=O)NC(=O)C1(NC(=O)[C@H](Cc2ccc3ccccc3c2)NC(=O)[C@H](Cc2ccc(OCCCCC[N+](C)(C)C)cc2)NC(=O)[C@H]2NC(=O)[C@H](CCCCNC(C)=O)NC(=O)[C@H](Cc3c[nH]c4c(C)cccc34)NC(=O)[C@H]([C@@H](C)O)NC(=O)[C@H](CC(=O)N(C)C)NC(=O)[C@@H](NC(=O)CCOCCOCC[N+](C)(C)C)C(C)(C)SSC2(C)C)CCOCC1)C(=O)O [compound 360, cPEG3aCO-Pen(3)-N(N(Me)2)-T-7MeW-K(Ac)-Pen(3)-TMAPF-2Nal-THP-K(NMeac)-N-3Pya-NMeK(PEG2PEG6gEC12)-CONH2] ({Me3N+(CH2)2O(CH2)2O(CH2)2CO}-[Pen]D(NMe2)T[Trp(7-Me)]K(Ac)[Pen]Y(X3)[2Nal][Thp][Lys(Me)](Ac)N[3Pal][NMeK]([AEEA-PEG6-γGlu-Lauroyl])-NH2; disulfide 1-6) | 8.4 | 166
7 | CCCCCCCCCCCCCC(=O)N[C@@H](CCC(=O)NCCOCCOCCOCCOCCOCCOCCC(=O)NCCOCCOCC(=O)NCCCC[C@@H](C(N)=O)N(C)C(=O)[C@H](Cc1cccnc1)NC(=O)[C@H](CC(N)=O)NC(=O)[C@H](CCCCN(C)C(C)=O)NC(=O)C1(NC(=O)[C@H](Cc2ccc3ccccc3c2)NC(=O)[C@H](Cc2ccc(OCCCCC[N+](C)(C)C)cc2)NC(=O)[C@H]2NC(=O)[C@H](CCCCNC(C)=O)NC(=O)[C@H](Cc3c[nH]c4c(C)cccc34)NC(=O)[C@H]([C@@H](C)O)NC(=O)[C@H](CC(=O)N(C)C)NC(=O)[C@@H](NC(=O)CCOCCOCC[N+](C)(C)C)C(C)(C)SSC2(C)C)CCOCC1)C(=O)O [compound 361, cPEG3aCO-Pen(3)-N(N(Me)2)-T-7MeW-K(Ac)-Pen(3)-TMAPF-2Nal-THP-K(NMeac)-N-3Pya-NMeK(PEG2PEG6gEC14)-CONH2] ({Me3N+(CH2)2O(CH2)2O(CH2)2CO}-[Pen]D(NMe2)T[Trp(7-Me)]K(Ac)[Pen]Y(X3)[2Nal][Thp][Lys(Me)](Ac)N[3Pal][NMeK]([AEEA-PEG6-γGlu-Myristoyl])-NH2; disulfide 1-6) | 12 | 168
8 | CCCCCCCCCCCC(=O)N[C@@H](CCC(=O)NCCOCCOCC(=O)NCCOCCOCC(=O)NCCCC[C@@H](C(N)=O)N(C)C(=O)[C@H](Cc1cccnc1)NC(=O)[C@H](CC(N)=O)NC(=O)[C@H](CCCCN(C)C(C)=O)NC(=O)C1(NC(=O)[C@H](Cc2ccc3ccccc3c2)NC(=O)[C@H](Cc2ccc(OCCCCC[N+](C)(C)C)cc2)NC(=O)[C@H]2NC(=O)[C@H](CCCCNC(C)=O)NC(=O)[C@H](Cc3c[nH]c4c(C)cccc34)NC(=O)[C@H]([C@@H](C)O)NC(=O)[C@H](CC(N)=O)NC(=O)[C@@H](NC(=O)CCOCCOCC[N+](C)(C)C)C(C)(C)SSC2(C)C)CCOCC1)C(=O)O [compound 371, cPEG3aCO-Pen(3)-N-T-7MeW-K(Ac)-Pen(3)-TMAPF-2Nal-THP-K(NMeac)-N-3Pya-NMeK(PEG2PEG2gEC12)-CONH2] ({Me3N+(CH2)2O(CH2)2O(CH2)2CO}-[Pen]NT[Trp(7-Me)]K(Ac)[Pen]Y(X3)[2Nal][Thp][Lys(Me)](Ac)N[3Pal][NMeK]([AEEA-AEEA-γGlu-Lauroyl])-NH2; disulfide 1-6) | 5.5 | 182
